Literature values in patent publication US20080214592A1, “METHODS OF TREATING ANXIETY DISORDERS” (Orexigen Therapeutics, Inc., priority 2005, published 2008).

physiological half life: about 24 hours
Structure (SMILES): CNCCC(Oc1ccc(C(F)(F)F)cc1)c1ccccc1 (stereo not shown) [Fluoxetine, fluoxetine]
